Laboratory results: patent US10118893B2, “Method of making complex nano particles and using the same to reduce cell viability” (Umm Al-Qura University, priority 2014, dated 2018)

Experiments:
[1] = tested on: Ehrlich ascites carcinoma (EAC) cells; assay: Antitumor activity using Ehrlich ascites carcinoma (EAC), in vitro percentage of nonviable cells; type: cell-based, mice; conditions: NVC %
Experimental: (§1) Olylammonium hydrogen selenites hydrogen selenite with its cobalt and platinum complexes were investigated as potential selective, anticancer prodrugs. They were tested by using Ehrlich Acites Carcinoma (EAC) as a model system of mice cell tumor. These compounds were also Tested in vitro on human […] monolayer tumor cell lines: MCF7 (Breast carcinoma), HEPG2 (liver carcenoma), U 251 ([…]) and HCT116 (colon carcinoma).
Ehrlich ascites carcinoma cells as a model system was based on the finding that it is excellent tool for studying the biological behavior of malignant tumors and drug action with cells. A line of Ehrlich ascites carcinoma (EAC) which used in the present study had been kindly supplied from National Cancer Institute, Cairo, Egypt, and maintained in female Swiss albino mice through weekly […] transplantation of 2.5×10^6 tumor cells/mouse. EAC cells were obtained by needle aspiration with aseptic condition. The ascetic fluid was diluted with sterile saline so that 0.1 ml contains 2.5×10^6 cells counted microscopically using a haemocytometer. In vitro studying of these compounds antitumor activity was determined according to the percentage of nonviable cells (NVC %) which was calculated by the following equation NVC %=[number of NVC/total number of cells][…].

[2] = Critical micelle concentration (CMC) and surface parameters of the surfactants; type: physicochemical; set-up: PC20: unit not given here
From the text: That fact could be explained from the unique property of the metal complexes in water. That is the complexes retain its unity in their solutions, which increased their volume in the aqueous media and then repulsion is occurred between the hydrophobic chain and water molecules. […] The efficiency “PC20” increase with increasing molar ratio of methylene units. These due to the fact that the efficiency of adsorption at interfaces increase linearly with increase in the carbon atoms in hydrophobic group. In case of the prepared parent cationic surfactants by increasing the number methylene units Maximum surface excess Γmax increases, this due to migration of molecules to the water-air interface. The consequence increase of Γmax leads to crowdiness occurred at the interface which causing decrease in Minimum area per molecule Amin values. That is due to the minimum surface area decrease with increasing the hydrophobic chain length of the synthesized surfactant molecules. The standard free energies of micellization ΔG° mic and adsorption ΔG° ads values are always negative indicating the spontaneously of these two processes but there is more increase in negativity of ΔG° ads rather than those of micellization indicating the tendency of the molecules to be adsorbed at the interface.

MCF7 (Breast carcinoma) = assay: Cytotoxic activity on human tumor cell line MCF7; type: cell-based; conditions: dose to reduce survival to 50%
Experimental: as §1
(§2) The results of the cytotoxic activity on human tumor cell lines were determined according to the dose values of drug exposure for cell lines to reduce survival to 50% (Ic50). The experimental results recorded in Table (3).

HEPG2 (liver carcenoma) = assay: Cytotoxic activity on human tumor cell line HEPG2; type: cell-based; conditions: dose to reduce survival to 50%
Experimental: as §1, §2

HCT116 (colon carcinoma) = assay: Cytotoxic activity on human tumor cell line HCT116; type: cell-based; conditions: dose to reduce survival to 50%
Experimental: as §1, §2

[3] = tested on: sulphur reducing bacteria; assay: Antibacterial activity against sulphur reducing bacteria, inhibition zone; type: cell-based
From the text: The results of the synthesized cationic surfactants against sulphur reducing bacteria recorded in Table 4.

HELA = assay: Cytotoxic activity on human tumor cell line HELA; type: cell-based; conditions: dose to reduce survival to 50%
Experimental: as §1, §2

CCCCCCCC/C=C\CCCCCCCCN.O=[Se](O)O [IIa, olylammonium hydrogen selenite]
Percent nonviable cells ([1]; Conc. 25 μg/ml): 10%
Percent nonviable cells ([1]; Conc. 50 μg/ml): 20%
Percent nonviable cells ([1]; Conc. 100 μg/ml): 40%
Δ Gads/Amin [2]: −46.8
ΠCMC [2]: 39 mN/m
CMC × 10−3 ([2]; critical micelle concentration, values × 10−3): 1.3
PC20 ([2]; efficiency): 3.8
Γmax × 10−11 ([2]; maximum surface excess, values × 10−11): 10.6 Mole/cm^2
A min ([2]; minimum area per molecule): 1.6 nm2
Δ Gads ([2]; standard free energy of adsorption): −67.7
Δ Gmic ([2]; standard free energy of micellization): −34.1
γCMC ([2]; surface tension at CMC): 33 mN/m
MCF7 (IC50) (MCF7 (Breast carcinoma)): does not reach to Ic50
HEPG2 (IC50) (HEPG2 (liver carcenoma)): does not reach to Ic50
HCT116 (IC50) (HCT116 (colon carcinoma)): does not reach to Ic50
Inhibition zone diameter [3]: 25 mm/mg sample
HELA (IC50) (HELA): does not reach to Ic50
